Measured values: patent US20250268877A1 (BIOGEN MA INC., priority 2020, published 2025)
Values after ≈ are worked out from the molar mass of the structure shown.

Legend:
MDR1 = MDR1 (Homo sapiens (Human), UniProt P08183); test: MDR1-MDCK assay (apparent permeability, efflux ratio); assay type: in vitro ADME; conditions: human, MDCK-MDR1, 1 μM, read-out: MDR1-MDCK_Efflux Ratio
[1] = Kinetic solubility assay (CLND), potassium phosphate buffer pH 6.8; assay type: physicochemical; conditions: potassium phosphate buffer, pH 6.8, aqueous buffer, kinetic from dmso stock, pH 6.8, 2% DMSO, 24 hours at ambient temperature
Excerpt: • Inject filtrates into the nitrogen detector for quantification on Analiza's Automated Discovery Workstation (ADW). • Solubility results generated in μg/mL

[2] = Kpuu assay (in vivo brain-to-plasma partition, unbound); conditions: brain (unbound) versus plasma (unbound); intravenous infusion 4 to 24 h; unbound drug partition coefficient; read-out: Brain Kpu,u
Description: For the brain-to-plasma partition coefficient (Kp) evaluation, a dosing solution was intravenously infused into animals at a constant flow rate for 4 to 24 h. Blood samples were serially collected during infusion, and CSF and brain samples were harvested at the end of infusion.
Tissue samples were typically homogenized in phosphate buffer saline (PBS) using a bead ruptor.
CSF samples were typically diluted with 8% BSA in PBS to prevent from non-specific binding. Artificial CSF (aCSF) is used as the surrogate matrix.
Calibration curves were prepared by spiking the analyte(s) into blank matrices, which were processed together with plasma, tissue homogenate and/or CSF samples by protein precipitation using a proper organic solvent (e.g. acetonitrile and methanol) containing generic analogue internal standards (e.g. verapamil, chrysin and glyburide). Matrix matching was used when analyzing multiple matrices in the same run. Samples above the upper limit of quantitation (ULOQ) needed to be diluted into the calibration range using either a pre-extraction or post-extraction dilution approach.
Processed samples were analyzed by LC-MS/MS using a proper method performing within the acceptable sensitivity, selectivity, precision and accuracy. For an analytical run to be accepted, over 75% of the calibration standards in the dual calibration curves needed to be within 20% of the nominal concentrations.
Brain concentrations were compared against plasma concentrations at the corresponding timepoint for the calculation of partition coefficient (Kp).
Unbound drug partition coefficient (Kpuu), defined as the ratio of unbound drug partition across the blood-brain barrier, was calculated using the equation below:
[formula] • Cb: measured total drug concentration in brain • Fub: unbound drug fraction in brain • Cp: measured total drug concentration in plasma • Fup: unbound drug fraction in plasma Compound- or study-specific PK analysis that deviates from the typical procedure might be used when necessary, which will be documented in a study specific protocol included in the data upload.
Mix thoroughly. • This spiked plasma solution is shown in FIG. 1. • 3) Prepare a chilled ‘crash’ solution of internal standard in a solvent solution. • Pipette 200 μL of 25 ng/mL solution of internal standard, CPDPX (8-Cyclopentyl-1,3-dipropylxanthine, Sigma-Aldrich, C101) in 1:1 acetonitrile/methanol solvent solution into a 1 mL 96-well plate. • Chill on ice or refrigerate at 4° C. • This solution becomes the ‘Crash’ plate in FIG. 1. • 4) From remaining spiked plasma, remove 50 μL (T=0 h) of each plasma sample and place into a crash plate which contains 200 μL. To matrix match, add 50 μL of blank buffer to the crashed sample (similar to PPB samples). […] Mix crash plate thoroughly. • From remaining spiked plasma, remove 50 μL (T=4 h) of each plasma sample and place into a crash plate. To matrix match, add 50 μL of blank buffer to the crashed sample (similar to the protein binding samples). • Centrifuge crash plate at 3900 rpm for 10 minutes at 4° C.
% Free=(PAR of buffer side/PAR of plasma side)*100 • PAR—Peak area ratio (PAR)
Fu=% Free/100 • Fu=fraction unbound

IRAK4 = IRAK4 (Homo sapiens (Human), UniProt Q9NWZ3); test: IRAK4 2-hour 1 mM ATP Biochemical Assay (MesoScale Detection format); conditions: 100 pM IRAK4, read-out: IRAK4 IC50
IRAK4, sequence (Q9NWZ3 whole entry): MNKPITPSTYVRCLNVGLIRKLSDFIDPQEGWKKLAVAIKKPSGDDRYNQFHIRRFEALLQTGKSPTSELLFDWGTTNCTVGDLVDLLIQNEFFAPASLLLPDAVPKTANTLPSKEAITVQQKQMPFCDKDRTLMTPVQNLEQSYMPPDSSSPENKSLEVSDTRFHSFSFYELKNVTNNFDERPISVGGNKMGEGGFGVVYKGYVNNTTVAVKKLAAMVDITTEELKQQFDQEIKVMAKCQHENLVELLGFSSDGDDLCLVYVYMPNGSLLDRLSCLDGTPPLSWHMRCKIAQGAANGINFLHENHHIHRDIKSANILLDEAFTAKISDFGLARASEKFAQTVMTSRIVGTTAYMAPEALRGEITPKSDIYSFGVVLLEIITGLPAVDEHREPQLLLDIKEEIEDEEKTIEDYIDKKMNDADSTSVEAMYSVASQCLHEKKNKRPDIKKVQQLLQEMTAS

MDR1, sequence (P08183 whole entry): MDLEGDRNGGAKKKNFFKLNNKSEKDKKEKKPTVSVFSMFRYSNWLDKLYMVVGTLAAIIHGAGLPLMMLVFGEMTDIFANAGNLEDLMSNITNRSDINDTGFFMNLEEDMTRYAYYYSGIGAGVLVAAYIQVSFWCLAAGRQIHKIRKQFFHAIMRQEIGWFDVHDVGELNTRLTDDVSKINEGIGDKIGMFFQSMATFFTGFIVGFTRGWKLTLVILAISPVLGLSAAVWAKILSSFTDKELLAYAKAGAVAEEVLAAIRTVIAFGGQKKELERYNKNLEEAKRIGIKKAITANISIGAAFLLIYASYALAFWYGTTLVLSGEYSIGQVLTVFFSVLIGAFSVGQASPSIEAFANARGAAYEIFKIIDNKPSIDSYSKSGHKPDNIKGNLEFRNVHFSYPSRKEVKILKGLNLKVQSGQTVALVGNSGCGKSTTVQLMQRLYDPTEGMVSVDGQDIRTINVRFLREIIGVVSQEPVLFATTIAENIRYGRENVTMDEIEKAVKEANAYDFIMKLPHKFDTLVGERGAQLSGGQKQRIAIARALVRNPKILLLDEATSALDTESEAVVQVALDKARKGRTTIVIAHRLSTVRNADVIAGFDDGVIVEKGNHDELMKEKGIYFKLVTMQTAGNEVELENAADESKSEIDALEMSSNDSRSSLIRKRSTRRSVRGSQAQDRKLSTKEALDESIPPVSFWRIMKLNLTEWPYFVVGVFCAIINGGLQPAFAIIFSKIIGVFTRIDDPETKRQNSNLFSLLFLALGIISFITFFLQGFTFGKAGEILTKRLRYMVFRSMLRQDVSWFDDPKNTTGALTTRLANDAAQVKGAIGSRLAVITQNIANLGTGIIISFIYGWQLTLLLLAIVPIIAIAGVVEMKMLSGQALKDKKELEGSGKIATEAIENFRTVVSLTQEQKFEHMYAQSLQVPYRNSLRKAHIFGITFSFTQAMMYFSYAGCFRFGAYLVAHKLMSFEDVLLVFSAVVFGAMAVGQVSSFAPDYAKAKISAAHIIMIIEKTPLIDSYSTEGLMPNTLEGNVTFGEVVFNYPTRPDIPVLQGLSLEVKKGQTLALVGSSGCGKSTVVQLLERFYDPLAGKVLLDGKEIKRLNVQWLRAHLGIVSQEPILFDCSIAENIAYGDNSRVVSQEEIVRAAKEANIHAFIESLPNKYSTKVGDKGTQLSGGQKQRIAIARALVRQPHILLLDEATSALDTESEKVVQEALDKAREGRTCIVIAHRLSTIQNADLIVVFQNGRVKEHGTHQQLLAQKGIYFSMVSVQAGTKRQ

`CC(C)Oc1nc2nn(C34COC(C)(C3)C4)cc2cc1C(=O)Nc1cccn([C@H]2C[C@H]2F)c1=O` (single isomer, unassigned) [Example 34] showed an efflux ratio at 120 min, 1 μM (MDR1) of 3.8, a solubility at 24 h [1] of 24.9 µg/mL (≈ 53.3 µM) and a Kp [2] of 0.7.

Work on `CC[C@H](C)Oc1nc2nn(C34COC(C)(C3)C4)cc2cc1C(=O)Nc1cccn(C2CC2)c1=O` [Example 15, (S)-6-(sec-butoxy)-N-(1-cyclopropyl-2-oxo-1,2-dihydropyridin-3-yl)-2-(1-methyl-2-oxabicyclo[2.1.1]hexan-4-yl)-2H-pyrazolo[3,4-b]pyridine-5-carboxamide] yielded an IC50 (IRAK4) of 0.5 nM, an efflux ratio at 120 min, 1 μM (MDR1) of 1.4 and a Kp [2] of 0.9.

With `COC[C@@]12CC[C@@](n3cc4cc(C(=O)Nc5cccn(C6CC6)c5=O)c(OC(C)C)nc4n3)(CO1)C2` [Example 30, N-(1-cyclopropyl-2-oxo-1,2-dihydropyridin-3-yl)-6-isopropoxy-2-((1S,4S)-1-(methoxymethyl)-2-oxabicyclo[2.2.1]heptan-4-yl)-2H-pyrazolo[3,4-b]pyridine-5-carboxamide] the IC50 (IRAK4) was 0.2 nM, the efflux ratio at 120 min, 1 μM (MDR1) was 2.58 and the Kp [2] was 0.6.

Compound `COCC12CC(n3cc4cc(C(=O)Nc5cccn([C@H]6C[C@H]6C)c5=O)c(OC(C)C)cc4n3)(CO1)C2` [Example 78, 6-isopropoxy-2-(1-(methoxymethyl)-2-oxabicyclo[2.1.1]hexan-4-yl)-N-(1-((1S,2R)-2-methylcyclopropyl)-2-oxo-1,2-dihydropyridin-3-yl)-2H-indazole-5-carboxamide] has an IC50 (IRAK4) of 0.7 nM, an efflux ratio at 120 min, 1 μM (MDR1) of 2.05 and a solubility at 24 h [1] of 36.1 µg/mL (≈ 73.3 µM).

In the case of `CC(C)Oc1cc2nn(C34COC(C3)C4)cc2cc1C(=O)Nc1cccn([C@H]2C[C@H]2C)c1=O` [Example 79, 2-(2-oxabicyclo[2.1.1]hexan-4-yl)-6-isopropoxy-N-(1-((1S,2R)-2-methylcyclopropyl)-2-oxo-1,2-dihydropyridin-3-yl)-2H-indazole-5-carboxamide], the IC50 (IRAK4) is reported as 0.8 nM, the efflux ratio at 120 min, 1 μM (MDR1) is reported as 2.56 and the solubility at 24 h [1] is reported as 55.8 µg/mL (≈ 124 µM).

`CC(C)Oc1cc2nn(C34COC(CF)(C3)C4)cc2cc1C(=O)Nc1cccn([C@H]2C[C@H]2C)c1=O` [Example 82, 2-(1-(fluoromethyl)-2-oxabicyclo[2.1.1]hexan-4-yl)-6-isopropoxy-N-(1-((1S,2R)-2-methylcyclopropyl)-2-oxo-1,2-dihydropyridin-3-yl)-2H-indazole-5-carboxamide] showed an IC50 (IRAK4) of 0.7 nM, an efflux ratio at 120 min, 1 μM (MDR1) of 2.17 and a solubility at 24 h [1] of 33.8 µg/mL (≈ 70.3 µM).

In the case of `C[C@@H]1C[C@@H]1n1cccc(NC(=O)c2cc3cn(C45COC(C)(C4)C5)nc3nc2OC2CC2)c1=O` [Example 89, 6-cyclopropoxy-2-(1-methyl-2-oxabicyclo[2.1.1]hexan-4-yl)-N-(1-((1S,2R)-2-methylcyclopropyl)-2-oxo-1,2-dihydropyridin-3-yl)-2H-pyrazolo[3,4-b]pyridine-5-carboxamide], the IC50 (IRAK4) is reported as 0.9 nM, the efflux ratio at 120 min, 1 μM (MDR1) is reported as 2.28 and the solubility at 24 h [1] is reported as 38.1 µg/mL (≈ 82.6 µM).

Compound `COCC12CC(n3cc4cc(C(=O)Nc5cccn([C@H]6C[C@H]6C)c5=O)c(OC5CC5)nc4n3)(CO1)C2` [Example 90] has an IC50 (IRAK4) of 1.1 nM, an efflux ratio at 120 min, 1 μM (MDR1) of 5.39 and a solubility at 24 h [1] of 65.2 µg/mL (≈ 133 µM).

`C[C@@H]1C[C@@H]1n1cccc(NC(=O)c2cc3cn(C45COC(C4)C5)nc3nc2OC2CC2)c1=O` [Example 91, 2-(2-oxabicyclo[2.1.1]hexan-4-yl)-6-cyclopropoxy-N-(1-((1S,2R)-2-methylcycloproyl)-2-oxo-1,2-dihydropyridin-3-yl)-2H-pyrazolo[3,4-b]pyridine-5-carboxamide] showed an IC50 (IRAK4) of 1.1 nM, an efflux ratio at 120 min, 1 μM (MDR1) of 5.09 and a solubility at 24 h [1] of 46.7 µg/mL (≈ 104 µM).

`C[C@@H]1C[C@@H]1n1cccc(NC(=O)c2cc3cn(C45COC(C)(C4)C5)nc3nc2OC2CCC2)c1=O` [Example 95, 6-cyclobutoxy-2-(1-methyl-2-oxabicyclo[2.1.1]hexan-4-yl)-N-(1-((1S,2R)-2-methylcyclopropyl)-2-oxo-1,2-dihydropyridin-3-yl)-2H-pyrazolo[3,4-b]pyridine-5-carboxamide] gave an IC50 (IRAK4) of 0.8 nM, an efflux ratio at 120 min, 1 μM (MDR1) of 1.09 and a solubility at 24 h [1] of 48.3 µg/mL (≈ 102 µM).
